{"source": "PubChem BioAssay (NCI)", "experiment_in_all_cases": "inhibition of tumour cell growth, NCI panel, 48 h", "key": {"[1]": {"system": "RXF 393 renal"}, "[2]": {"system": "CAKI-1 renal"}, "[3]": {"system": "SK-MEL-2 melanoma"}, "[4]": {"system": "COLO 205 colon"}, "[5]": {"system": "SF-539 CNS"}, "[6]": {"system": "M14 melanoma"}, "[7]": {"system": "A549 NSCLC"}, "[8]": {"system": "OVCAR-8 ovarian"}, "[9]": {"system": "SN12C renal"}, "[10]": {"system": "UO-31 renal"}, "[11]": {"system": "OVCAR-4 ovarian"}, "[12]": {"system": "KM12 colon"}, "[13]": {"system": "HS 578T breast"}, "[14]": {"system": "SW-620 colon"}, "[15]": {"system": "SF-268 CNS"}, "[16]": {"system": "MDA-MB-435"}, "[17]": {"system": "HCT-15 colon"}, "[18]": {"system": "HOP-92 NSCLC"}, "[19]": {"system": "U251 CNS"}, "[20]": {"system": "BT-549 breast"}, "[21]": {"system": "SK-OV-3 ovarian"}, "[22]": {"system": "MOLT-4 leukemia"}, "[23]": {"system": "786-0 renal"}, "[24]": {"system": "SR leukemia"}, "[25]": {"system": "K-562 leukemia"}, "[26]": {"system": "SF-295 CNS"}, "[27]": {"system": "NCI-H226 lung"}, "[28]": {"system": "EKVX NSCLC"}, "[29]": {"system": "SNB-19 CNS"}, "[30]": {"system": "HCT-116 colon"}, "[31]": {"system": "OVCAR-5 ovarian"}, "[32]": {"system": "A498 renal"}, "[33]": {"system": "CCRF-CEM leukemia"}, "[34]": {"system": "UACC-257 melanoma"}, "[35]": {"system": "NCI-H460 lung"}, "[36]": {"system": "NCI-H522 lung"}, "[37]": {"system": "TK-10 renal"}, "[38]": {"system": "OVCAR-3 ovarian"}, "[39]": {"system": "ACHN renal"}, "[40]": {"system": "SK-MEL-28 melanoma"}, "[41]": {"system": "SK-MEL-5 melanoma"}, "[42]": {"system": "RPMI-8226 leukemia"}, "[43]": {"system": "SNB-75 CNS"}, "[44]": {"system": "PC-3 prostate"}, "[45]": {"system": "HL-60(TB) leukemia"}, "[46]": {"system": "DU-145 prostate"}, "[47]": {"system": "HCC-2998 colon"}, "[48]": {"system": "HOP-62 NSCLC"}, "[49]": {"system": "UACC-62 melanoma"}, "[50]": {"system": "T-47D breast"}, "[51]": {"system": "MCF7 breast"}}, "note": "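A five-concentration, 48-hour dose response in 96-well plates underlies each endpoint, interpolated linearly between surrounding concentrations. GI50 = concentration required for 50% inhibition of growth. TGI: total growth inhibition.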", "data": [{"smiles": "CC1(C)CC[C@]23CC[C@]4(C)[C@H](CC[C@@H]5[C@@]6(C)CC[C@H](N)C(C)(C)[C@@H]6CC[C@]54C)[C@H]2[C@H]1OC3", "values": [{"measurement": "GI50", "setting": "[1]", "value": 1.58, "unit": "µM"}, {"measurement": "TGI", "setting": "[1]", "value": 2.94, "unit": "µM"}, {"measurement": "GI50", "setting": "[2]", "value": 1.69, "unit": "µM"}, {"measurement": "TGI", "setting": "[2]", "value": 3.19, "unit": "µM"}, {"measurement": "GI50", "setting": "[3]", "value": 2.98, "unit": "µM"}, {"measurement": "TGI", "setting": "[3]", "value": 10.1, "unit": "µM"}, {"measurement": "GI50", "setting": "[4]", "value": 1.91, "unit": "µM"}, {"measurement": "TGI", "setting": "[4]", "value": 3.62, "unit": "µM"}, {"measurement": "GI50", "setting": "[5]", "value": 1.74, "unit": "µM"}, {"measurement": "TGI", "setting": "[5]", "value": 3.22, "unit": "µM"}, {"measurement": "GI50", "setting": "[6]", "value": 1.92, "unit": "µM"}, {"measurement": "TGI", "setting": "[6]", "value": 3.88, "unit": "µM"}, {"measurement": "GI50", "setting": "[7]", "value": 1.98, "unit": "µM"}, {"measurement": "TGI", "setting": "[7]", "value": 4.36, "unit": "µM"}, {"measurement": "GI50", "setting": "[8]", "value": 2.57, "unit": "µM"}, {"measurement": "TGI", "setting": "[8]", "value": 6.84, "unit": "µM"}, {"measurement": "GI50", "setting": "[9]", "value": 1.79, "unit": "µM"}, {"measurement": "TGI", "setting": "[9]", "value": 3.57, "unit": "µM"}, {"measurement": "GI50", "setting": "[10]", "value": 1.5, "unit": "µM"}, {"measurement": "TGI", "setting": "[10]", "value": 2.97, "unit": "µM"}, {"measurement": "GI50", "setting": "[11]", "value": 2.75, "unit": "µM"}, {"measurement": "TGI", "setting": "[11]", "value": 7.48, "unit": "µM"}, {"measurement": "GI50", "setting": "[12]", "value": 1.92, "unit": "µM"}, {"measurement": "TGI", "setting": "[12]", "value": 3.65, "unit": "µM"}, {"measurement": "GI50", "setting": "[13]", "value": 2.58, "unit": "µM"}, {"measurement": "TGI", "setting": "[13]", "value": 6.9, "unit": "µM"}, {"measurement": "GI50", "setting": "[14]", "value": 2, "unit": "µM"}, {"measurement": "TGI", "setting": "[14]", "value": 4.1, "unit": "µM"}, {"measurement": "GI50", "setting": "[15]", "value": 5.98, "unit": "µM"}, {"measurement": "TGI", "setting": "[15]", "value": 23.5, "unit": "µM"}, {"measurement": "GI50", "setting": "[16]", "value": 1.91, "unit": "µM"}, {"measurement": "TGI", "setting": "[16]", "value": 3.73, "unit": "µM"}, {"measurement": "GI50", "setting": "[17]", "value": 1.62, "unit": "µM"}, {"measurement": "TGI", "setting": "[17]", "value": 3.15, "unit": "µM"}, {"measurement": "GI50", "setting": "[18]", "value": 2.5, "unit": "µM"}, {"measurement": "TGI", "setting": "[18]", "value": 6.59, "unit": "µM"}, {"measurement": "GI50", "setting": "[19]", "value": 1.79, "unit": "µM"}, {"measurement": "TGI", "setting": "[19]", "value": 3.66, "unit": "µM"}, {"measurement": "GI50", "setting": "[20]", "value": 15.4, "unit": "µM"}, {"measurement": "TGI", "setting": "[20]", "value": 29, "unit": "µM"}, {"measurement": "GI50", "setting": "[21]", "value": 14.1, "unit": "µM"}, {"measurement": "TGI", "setting": "[21]", "value": 28.7, "unit": "µM"}, {"measurement": "GI50", "setting": "[22]", "value": 2.17, "unit": "µM"}, {"measurement": "TGI", "setting": "[22]", "value": 7.3, "unit": "µM"}, {"measurement": "GI50", "setting": "[23]", "value": 1.66, "unit": "µM"}, {"measurement": "TGI", "setting": "[23]", "value": 3.26, "unit": "µM"}, {"measurement": "GI50", "setting": "[24]", "value": 0.663, "unit": "µM"}, {"measurement": "TGI", "setting": "[24]", "value": 4.56, "unit": "µM"}, {"measurement": "GI50", "setting": "[25]", "value": 2.08, "unit": "µM"}, {"measurement": "TGI", "setting": "[25]", "value": 5.94, "unit": "µM"}, {"measurement": "GI50", "setting": "[26]", "value": 1.75, "unit": "µM"}, {"measurement": "TGI", "setting": "[26]", "value": 3.27, "unit": "µM"}, {"measurement": "GI50", "setting": "[27]", "value": 5.22, "unit": "µM"}, {"measurement": "TGI", "setting": "[27]", "value": 31.1, "unit": "µM"}, {"measurement": "GI50", "setting": "[28]", "value": 1.83, "unit": "µM"}, {"measurement": "TGI", "setting": "[28]", "value": 3.84, "unit": "µM"}, {"measurement": "GI50", "setting": "[29]", "value": 1.9, "unit": "µM"}, {"measurement": "TGI", "setting": "[29]", "value": 3.72, "unit": "µM"}, {"measurement": "GI50", "setting": "[30]", "value": 1.74, "unit": "µM"}, {"measurement": "TGI", "setting": "[30]", "value": 3.2, "unit": "µM"}, {"measurement": "GI50", "setting": "[31]", "value": 1.87, "unit": "µM"}, {"measurement": "TGI", "setting": "[31]", "value": 3.95, "unit": "µM"}, {"measurement": "GI50", "setting": "[32]", "value": 11.7, "unit": "µM"}, {"measurement": "TGI", "setting": "[32]", "value": 27.1, "unit": "µM"}, {"measurement": "GI50", "setting": "[33]", "value": 2.11, "unit": "µM"}, {"measurement": "TGI", "setting": "[33]", "value": 36.3, "unit": "µM"}, {"measurement": "GI50", "setting": "[34]", "value": 15.3, "unit": "µM"}, {"measurement": "TGI", "setting": "[34]", "value": 35.6, "unit": "µM"}, {"measurement": "GI50", "setting": "[35]", "value": 1.85, "unit": "µM"}, {"measurement": "TGI", "setting": "[35]", "value": 3.6, "unit": "µM"}, {"measurement": "GI50", "setting": "[36]", "value": 2.98, "unit": "µM"}, {"measurement": "TGI", "setting": "[36]", "value": 9.75, "unit": "µM"}, {"measurement": "GI50", "setting": "[37]", "value": 15.7, "unit": "µM"}, {"measurement": "TGI", "setting": "[37]", "value": 31.1, "unit": "µM"}, {"measurement": "GI50", "setting": "[38]", "value": 1.83, "unit": "µM"}, {"measurement": "TGI", "setting": "[38]", "value": 3.48, "unit": "µM"}, {"measurement": "GI50", "setting": "[39]", "value": 1.82, "unit": "µM"}, {"measurement": "TGI", "setting": "[39]", "value": 3.26, "unit": "µM"}, {"measurement": "GI50", "setting": "[40]", "value": 1.83, "unit": "µM"}, {"measurement": "TGI", "setting": "[40]", "value": 3.93, "unit": "µM"}, {"measurement": "GI50", "setting": "[41]", "value": 1.74, "unit": "µM"}, {"measurement": "TGI", "setting": "[41]", "value": 3.2, "unit": "µM"}, {"measurement": "GI50", "setting": "[42]", "value": 2.73, "unit": "µM"}, {"measurement": "TGI", "setting": "[42]", "value": 7.21, "unit": "µM"}, {"measurement": "GI50", "setting": "[43]", "value": 17, "unit": "µM"}, {"measurement": "TGI", "setting": "[43]", "value": 38.9, "unit": "µM"}, {"measurement": "GI50", "setting": "[44]", "value": 2.34, "unit": "µM"}, {"measurement": "TGI", "setting": "[44]", "value": 6.14, "unit": "µM"}, {"measurement": "GI50", "setting": "[45]", "value": 1.67, "unit": "µM"}, {"measurement": "TGI", "setting": "[45]", "value": 3.78, "unit": "µM"}, {"measurement": "GI50", "setting": "[46]", "value": 1.89, "unit": "µM"}, {"measurement": "TGI", "setting": "[46]", "value": 3.67, "unit": "µM"}, {"measurement": "GI50", "setting": "[47]", "value": 1.76, "unit": "µM"}, {"measurement": "TGI", "setting": "[47]", "value": 3.33, "unit": "µM"}, {"measurement": "GI50", "setting": "[48]", "value": 1.88, "unit": "µM"}, {"measurement": "TGI", "setting": "[48]", "value": 3.78, "unit": "µM"}, {"measurement": "GI50", "setting": "[49]", "value": 1.85, "unit": "µM"}, {"measurement": "TGI", "setting": "[49]", "value": 3.9, "unit": "µM"}, {"measurement": "GI50", "setting": "[50]", "value": 3.75, "unit": "µM"}, {"measurement": "TGI", "setting": "[50]", "value": 19.3, "unit": "µM"}, {"measurement": "GI50", "setting": "[51]", "value": 1.62, "unit": "µM"}, {"measurement": "TGI", "setting": "[51]", "value": 3.32, "unit": "µM"}]}]}
